pKi: −log10 of the molar value. Starred links: 1 amine or outer side, 2 acyl side, 3 side chain; linkers in the order of their positions; H or OH if unused. Positions of bridges follow the written chain, without caps; N, C: chain ends. Non-standard residues stand in square brackets, D forms with d. Residues, ends and D or L forms follow the SMILES beside them. X5 = O=C(CCSCCN[*:3])N1CN(C(=O)CC[*:1])CN(C(=O)CC[*:2])C1; TATA = O=C(CC[*:1])N1CN(C(=O)CC[*:2])CN(C(=O)CC[*:3])C1; Dip = N[C@H](C(=O)O)C(c1ccccc1)c1ccccc1; 1Nal = N[C@@H](Cc1cccc2ccccc12)C(=O)O; Hyp = O=C(O)[C@@H]1C[C@@H](O)CN1; hArg = N=C(N)NCCCC[C@H](N)C(=O)O; 2Thi = N[C@@H](Cc1cccs1)C(=O)O; dNle = CCCC[C@@H](N)C(=O)O; Nle = CCCC[C@H](N)C(=O)O
Each molecule was assayed against human EphA2 (Homo sapiens, UniProt P29317) (assay: biochemical).
Chain of human EphA2 (P29317 24-976): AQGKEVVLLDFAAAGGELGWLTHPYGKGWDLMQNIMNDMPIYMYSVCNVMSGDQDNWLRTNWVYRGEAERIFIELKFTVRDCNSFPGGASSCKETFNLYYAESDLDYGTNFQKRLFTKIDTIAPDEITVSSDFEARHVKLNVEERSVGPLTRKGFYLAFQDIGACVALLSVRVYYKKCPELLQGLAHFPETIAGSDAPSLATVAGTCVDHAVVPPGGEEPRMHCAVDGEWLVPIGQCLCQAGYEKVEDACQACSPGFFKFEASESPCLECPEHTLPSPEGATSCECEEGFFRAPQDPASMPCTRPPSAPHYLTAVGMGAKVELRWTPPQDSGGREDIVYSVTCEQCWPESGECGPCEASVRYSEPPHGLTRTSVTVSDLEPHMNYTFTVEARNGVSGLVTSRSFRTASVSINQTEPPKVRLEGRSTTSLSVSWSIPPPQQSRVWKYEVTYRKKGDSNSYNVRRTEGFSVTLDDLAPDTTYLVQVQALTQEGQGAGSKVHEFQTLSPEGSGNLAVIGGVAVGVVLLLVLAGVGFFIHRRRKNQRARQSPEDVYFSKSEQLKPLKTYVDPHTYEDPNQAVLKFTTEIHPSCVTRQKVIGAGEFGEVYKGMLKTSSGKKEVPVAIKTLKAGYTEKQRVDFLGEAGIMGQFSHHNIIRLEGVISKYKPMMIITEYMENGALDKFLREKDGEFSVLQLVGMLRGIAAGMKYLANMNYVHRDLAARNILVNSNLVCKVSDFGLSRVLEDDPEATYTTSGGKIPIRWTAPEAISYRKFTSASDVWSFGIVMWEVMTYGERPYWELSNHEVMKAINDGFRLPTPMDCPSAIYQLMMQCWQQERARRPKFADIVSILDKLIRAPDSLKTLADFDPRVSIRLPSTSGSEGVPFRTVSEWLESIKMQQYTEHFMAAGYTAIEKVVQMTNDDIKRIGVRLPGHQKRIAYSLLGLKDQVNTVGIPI

| Structure (SMILES) | pKi |
| --- | --- |
| CC(C)C[C@@H]1NC(=O)[C@@H]2CSCCC(=O)N3CN(CN(C3)C(=O)CCSC[C@H](N)C(=O)N3C[C@H](O)C[C@H]3C(=O)N[C@@H](CC(C)C)C(=O)N[C@@H](C(C)C)C(=O)N[C@@H](CC(N)=O)C(=O)N3CCC[C@H]3C(=O)N[C@@H](CC(C)C)C(=O)N2)C(=O)CCSC[C@@H](C(N)=O)NC(=O)[C@H]([C@@H](C)O)NC(=O)[C@H](Cc2c[nH]c3ccccc23)NC(=O)[C@@H](CC(=O)O)NC(=O)[C@@H]2CCCN2C(=O)[C@H](Cc2cccc3ccccc23)NC1=O [BCY13119, Ci[HyP]LVNPLCiiL[1Nal]P[dD]WTCiii] (H-C[Hyp]LVNPLCL[1Nal]P[dD]WTC-NH2; linker 1-8-15 via TATA; N-terminus and C-terminus assumed) | 8.58 |
| CCCC[C@@H]1NC(=O)[C@H](CC(C)C)NC(=O)[C@@H]2CSCCC(=O)N3CN(CN(C3)C(=O)CCSC[C@H](NC(=O)[C@H](CC(=O)O)NC(=O)[C@H](CCCCNC(=N)N)NC(=O)[C@H](C)N)C(=O)N3C[C@H](O)C[C@H]3C(=O)N[C@@H](CC(C)C)C(=O)N[C@@H](C(C)C)C(=O)N[C@@H](CC(N)=O)C(=O)N3CCC[C@H]3C(=O)N[C@@H](CC(C)C)C(=O)N2)C(=O)CCSC[C@@H](C(N)=O)NC(=O)[C@H](CCCCNC(=N)N)NC(=O)[C@H](Cc2c[nH]c3ccccc23)NC(=O)[C@@H](CC(=O)O)NC(=O)[C@@H]2CCCN2C1=O [BCY13135, A-[HArg]-D-Ci[HyP]LVNPLCiiL[Nle]P[dD]W[HArg]Ciii] (H-A[hArg]DC[Hyp]LVNPLCL[Nle]P[dD]W[hArg]C-NH2; linker 4-11-18 via TATA; N-terminus and C-terminus assumed) | 9.05 |
| CC(C)C[C@@H]1NC(=O)[C@@H]2CSCCC(=O)N3CN(CN(C3)C(=O)CCSC[C@H](N)C(=O)N3C[C@H](O)C[C@H]3C(=O)N[C@@H](CC(C)C)C(=O)N[C@@H](C(C)C)C(=O)N[C@@H](CC(N)=O)C(=O)N3CCC[C@H]3C(=O)N[C@@H](CC(C)C)C(=O)N2)C(=O)CCSC[C@@H](C(N)=O)NC(=O)[C@H]([C@@H](C)O)NC(=O)[C@H](Cc2c[nH]c3ccccc23)NC(=O)[C@@H](CC(=O)O)NC(=O)[C@@H]2CCCN2C(=O)[C@H](C(c2ccccc2)c2ccccc2)NC1=O [BCY12860, Ci[HyP]LVNPLCiiL[3,3-DPA]P[dD]WTCiii] (H-C[Hyp]LVNPLCL[Dip]P[dD]WTC-NH2; linker 1-8-15 via TATA; N-terminus and C-terminus assumed) | 9.18 |
| CC(C)C[C@@H]1NC(=O)[C@@H]2CSCCC(=O)N3CN(CN(C3)C(=O)CCSC[C@H](NC(=O)[C@H](CC(=O)O)NC(=O)[C@H](CCCCNC(=N)N)NC(=O)[C@H](C)N)C(=O)N3C[C@H](O)C[C@H]3C(=O)N[C@@H](CC(C)C)C(=O)N[C@@H](C(C)C)C(=O)N[C@@H](CC(N)=O)C(=O)N3CCC[C@H]3C(=O)N[C@@H](CC(C)C)C(=O)N2)C(=O)CCSC[C@@H](C(N)=O)NC(=O)[C@H](CCCCNC(=N)N)NC(=O)[C@H](Cc2c[nH]c3ccccc23)NC(=O)[C@@H](CC(=O)O)NC(=O)[C@@H]2CCCN2C(=O)[C@H](CC(N)=O)NC1=O [BCY14047, A[HArg]DCi[HyP]LVNPLCiiLNP[dD]W[HArg]Ciii] (H-A[hArg]DC[Hyp]LVNPLCLNP[dD]W[hArg]C-NH2; linker 4-11-18 via TATA; N-terminus and C-terminus assumed) | 8.41 |
| CCCC[C@H]1NC(=O)[C@@H]2CCCN2C(=O)[C@H](Cc2c[nH]cn2)NC(=O)[C@H](CC(C)C)NC(=O)[C@@H]2CSCCC(=O)N3CN(CN(C3)C(=O)CCSC[C@H](NC(=O)[C@H](CC(=O)O)NC(=O)[C@H](CCCCNC(=N)N)NC(=O)[C@H](C)N)C(=O)N3C[C@H](O)C[C@H]3C(=O)N[C@@H](CC(C)C)C(=O)N[C@@H](C(C)C)C(=O)N[C@@H](CC(N)=O)C(=O)N3CCC[C@H]3C(=O)N[C@@H](CC(C)C)C(=O)N2)C(=O)CCSC[C@@H](C(N)=O)NC(=O)[C@H](CCCCNC(=N)N)NC(=O)[C@H](Cc2c[nH]c3ccccc23)NC1=O [BCY13134, A-[HArg]-D-Ci[HyP]LVNPLCiiLHP[dNle]W[HArg]Ciii] (H-A[hArg]DC[Hyp]LVNPLCLHP[dNle]W[hArg]C-NH2; linker 4-11-18 via TATA; N-terminus and C-terminus assumed) | 8.94 |
| CC(C)C[C@@H]1NC(=O)[C@@H]2CSCCC(=O)N3CN(CN(C3)C(=O)CCSC[C@H](NC(=O)[C@H](CC(=O)O)NC(=O)[C@H](CCCCNC(=N)N)NC(=O)[C@H](C)N)C(=O)N3C[C@H](O)C[C@H]3C(=O)N[C@@H](CC(C)C)C(=O)N[C@@H](C(C)C)C(=O)N[C@@H](CC(N)=O)C(=O)N3CCC[C@H]3C(=O)N[C@@H](CC(C)C)C(=O)N2)C(=O)CCSCCNC(=O)[C@H](CCCCNC(=N)N)NC(=O)[C@H](Cc2c[nH]c3ccccc23)NC(=O)[C@@H](CC(=O)O)NC(=O)[C@@H]2CCCN2C(=O)[C@H](Cc2c[nH]cn2)NC1=O [BCY13133, A[HArg]DCi[HyP]LVNPLCiiLHP[dD]W[HArg][Cysam]iii] (H-A[hArg]DC[Hyp]LVNPLCLHP[dD]W[hArg]; linker 4-11-C via X5; N-terminus assumed) | 8.49 |
| CC(C)C[C@@H]1NC(=O)[C@@H]2CSCCC(=O)N3CN(CN(C3)C(=O)CCSC[C@H](NC(=O)[C@H](CC(=O)O)NC(=O)[C@H](CCCCNC(=N)N)NC(=O)[C@H](C)N)C(=O)N3C[C@H](O)C[C@H]3C(=O)N[C@@H](CC(C)C)C(=O)N[C@@H](C(C)C)C(=O)N[C@@H](CC(N)=O)C(=O)N3CCC[C@H]3C(=O)N[C@@H](CC(C)C)C(=O)N2)C(=O)CCSC[C@@H](C(N)=O)NC(=O)[C@H](CCCCNC(=N)N)NC(=O)[C@H](Cc2c[nH]c3ccccc23)NC(=O)[C@@H](CC(=O)O)NC(=O)[C@@H]2CCCN2C(=O)[C@H](Cc2cccs2)NC1=O [BCY13922, A[HArg]DCi[HyP]LVNPLCiiL[Thi]P[dD]W[HArg]Ciii] (H-A[hArg]DC[Hyp]LVNPLCL[2Thi]P[dD]W[hArg]C-NH2; linker 4-11-18 via TATA; N-terminus and C-terminus assumed) | 8.94 |
| CC(=O)N[C@H]1CSCCC(=O)N2CN3CN(C2)C(=O)CCSC[C@@H](C(=O)N[C@H](CCCCN)C(N)=O)NC(=O)[C@H]([C@@H](C)O)NC(=O)[C@H](Cc2c[nH]c4ccccc24)NC(=O)[C@@H](CC(=O)O)NC(=O)[C@@H]2CCCN2C(=O)[C@H](C(c2ccccc2)c2ccccc2)NC(=O)[C@H](CC(C)C)NC(=O)[C@H](CSCCC3=O)NC(=O)[C@H](CC(C)C)NC(=O)[C@@H]2CCCN2C(=O)[C@H](CC(N)=O)NC(=O)[C@H](C(C)C)NC(=O)[C@H](CC(C)C)NC(=O)[C@@H]2C[C@@H](O)CN2C1=O [BCY13120, Ac-Ci[HyP]LVNPLCiiL[3,3-DPA]P[dD]WTCiii-[dK]] (Ac-C[Hyp]LVNPLCL[Dip]P[dD]WTC[dK]-NH2; linker 1-8-15 via TATA; C-terminus assumed) | 9.04 |
| CC(C)C[C@@H]1NC(=O)[C@@H]2CSCCC(=O)N3CN(CN(C3)C(=O)CCSC[C@H](NC(=O)[C@H](CC(=O)O)NC(=O)[C@H](CCCCNC(=N)N)NC(=O)[C@H](C)N)C(=O)N3C[C@H](O)C[C@H]3C(=O)N[C@@H](CC(C)C)C(=O)N[C@@H](C(C)C)C(=O)N[C@@H](CC(N)=O)C(=O)N3CCC[C@H]3C(=O)N[C@@H](CC(C)C)C(=O)N2)C(=O)CCSC[C@@H](C(N)=O)NC(=O)[C@H]([C@@H](C)O)NC(=O)[C@H](Cc2c[nH]c3ccccc23)NC(=O)[C@@H](CC(=O)O)NC(=O)[C@@H]2CCCN2C(=O)[C@H](Cc2c[nH]cn2)NC1=O [BCY12855, A-[HArg]-D-Ci[HyP]LVNPLCiiLHP[dD]WTCiii] (H-A[hArg]DC[Hyp]LVNPLCLHP[dD]WTC-NH2; linker 4-11-18 via TATA; N-terminus and C-terminus assumed) | 8.26 |
